Source: patent US20250206755A1, “ANTIMICROBIAL AGENTS” (RUTGERS, THE STATE UNIVERSITY OF NEW JERSEY, priority 2012, published 2025)
Values after ≈ are worked out from the molar mass of the structure shown.

How the values were obtained:
MSSA = experiment: Antibacterial assay, broth microdilution MIC (Test A); format: cell-based; conditions: Staphylococcus aureus, MIC values may be lower as solubility and aggregate formation may reduce observed activity
Method: (§1) Antibacterial activity can be determined as per Clinical and Laboratory Standards Institute (CLSI) guidelines using a broth microdilution assay in which log-phase bacteria are grown at 37° C. in appropriate medium containing two-fold serial dilutions of a compound to yield final concentrations ranging from 256 to 0.06 μg/mL. For determination of minimal inhibitory concentration (MIC) values, bacterial growth is monitored after 24 to 48 hours by measuring optical density at 600 nm.

MRSA = experiment: as above; format: cell-based; conditions: Staphylococcus aureus, MIC values may be lower as solubility and aggregate formation may reduce observed activity
Method: as §1

[1] = system: S. aureus ATCC 19636 (MSSA); experiment: In vivo efficacy, mouse peritonitis model of systemic infection (Test D), MSSA; conditions: mice
Method: Antistaphylococcal efficacy in vivo was assessed in a mouse peritonitis model of systemic infection with S. aureus ATCC 19636 (MSSA) or ATCC 43300 (MRSA). These studies were conducted in full compliance with the standards established by the US National Research Council's Guide for the Care and Use of Laboratory Animals, and were approved by the Institutional Animal Care and Use Committee (IACUC) of Rutgers University. Groups of 4-6 female Swiss-Webster mice with an average weight of 25 g were infected intraperitoneally with a lethal inoculum of each bacterial strain in saline. The inoculum of S. aureus ATCC 43300 contained 1.0×10^8 CFUs/mL of bacteria, while the inoculum of S. aureus ATCC 19636 contained 0.8×10^7 CFUs/mL of bacteria. All the inocula also contained porcine mucin (Sigma-Aldrich, Co.) at a (w/v) percentage of 1.5% (in ATCC 19636 inocula) or 5% (in the ATCC 43300 inoculum). The differing compositions of the inocula of these S. aureus strains were selected based on the virulence of each strain, with MSSA ATCC 19636 being the more virulent strain and MRSA ATCC 43300 being the less virulent strain.
All compound and vehicle intravenous (i.v.) administrations were by tail vein injection, with 17 being formulated at 2.0 mg/mL and 44 being formulated at both 2.0 and 3.0 mg/ml in 10 mM citrate (pH 2.6).
In the MSSA ATCC 19636 experiments, the first dose of compound was administered 10 minutes after infection, with subsequent doses being administered at 12-minute intervals thereafter unless otherwise noted. In the MRSA studies, the first dose of compound was administered one hour after infection, with subsequent doses being administered at 12-minute intervals thereafter unless otherwise indicated.
The body temperatures of all mice were monitored for a period of 5 days after infection. Body temperatures were recorded at the Xiphoid process using a noninvasive infrared thermometer (Braintree Scientific, Inc., Braintree, MA). Infected mice with body temperatures ≤28.9° C. were viewed as being unable to recover from the infection and were euthanized.

[2] = system: S. aureus ATCC 43300 (MRSA); experiment: In vivo efficacy, mouse peritonitis model of systemic infection (Test D), MRSA; conditions: mice, p.o., total dose 4.8 mg/mouse
[3] = i.v., 1x, total dose 0.6 mg/mouse, first dose immediately prior to infection
[4] = i.v., 2x, total dose 1.2 mg/mouse, first dose immediately prior to infection, subsequent doses 15 minutes following
[5] = p.o., 1x, total dose 0.8 mg/mouse, first dose 5 minutes prior to infection
[6] = p.o., 2x, total dose 1.6 mg/mouse, first dose 5 minutes prior to infection, subsequent doses 15 minutes apart
[7] = p.o., 4x, total dose 3.2 mg/mouse, first dose 5 minutes prior to infection, subsequent doses 15 minutes apart
[8] = 6x (no footnote: first dose one hour after infection, 12-minute intervals)
[9] = 6x, first dose 5 minutes prior to infection, subsequent doses 12 minutes apart
[10] = 6x, first dose 10 minutes post-infection, subsequent doses 12 minutes apart
[11] = i.v., 2x, total dose 1.8 mg/mouse
[12] = p.o., 1x, total dose 0.8 mg/mouse
[13] = p.o., 2x, total dose 1.6 mg/mouse
[14] = p.o., 3x, total dose 2.4 mg/mouse
[15] = p.o., 4x, total dose 3.2 mg/mouse

CCC(=O)NC(=O)c1c(F)ccc(OCc2nc3cc(Cl)ccc3s2)c1F [Example 5]
MIC (MSSA): 2 µg/mL (≈ 4.87 µM) | MIC (MRSA): 2 µg/mL (≈ 4.87 µM)

CN1CCC(C(=O)NC(=O)c2c(F)ccc(OCc3nc4cc(Cl)cnc4s3)c2F)CC1 [Example 17]
Survival (%) 24 Hrs [1, 3]: 0% | Survival (%) 48 Hrs [1, 3]: 0% | Survival (%) 72 Hrs [1, 3]: 0% | Survival (%) 24 Hrs [1, 4]: 0% | Survival (%) 48 Hrs [1, 4]: 0% | Survival (%) 72 Hrs [1, 4]: 0% | Survival (%) 24 Hrs [1, 5]: 0% | Survival (%) 48 Hrs [1, 5]: 0% | Survival (%) 72 Hrs [1, 5]: 0% | Survival (%) 24 Hrs [1, 6]: 0% | Survival (%) 48 Hrs [1, 6]: 0% | Survival (%) 72 Hrs [1, 6]: 0% | Survival (%) 24 Hrs [1, 7]: 100% | Survival (%) 48 Hrs [1, 7]: 100% | Survival (%) 72 Hrs [1, 7]: 100% | Survival (%) 48 Hrs [2, 8]: 50% | Survival (%) 72 Hrs [2, 8]: 50% | Survival (%) 24 Hrs [2, 9]: 100% | Survival (%) 48 Hrs [2, 9]: 100% | Survival (%) 72 Hrs [2, 9]: 100% | Survival (%) 24 Hrs [2, 10]: 100% | Survival (%) 48 Hrs [2, 10]: 100% | Survival (%) 72 Hrs [2, 10]: 100%

CN1CCC(C(=O)NC(=O)c2c(F)ccc(OCc3nc4cc(C(F)(F)F)cnc4s3)c2F)CC1 [Example 44]
Survival (%) 24 Hrs [1, 11]: 100% | Survival (%) 48 Hrs [1, 11]: 100% | Survival (%) 72 Hrs [1, 11]: 100% | Survival (%) 24 Hrs [1, 12]: 50% | Survival (%) 48 Hrs [1, 12]: 50% | Survival (%) 72 Hrs [1, 12]: 50% | Survival (%) 24 Hrs [1, 13]: 100% | Survival (%) 48 Hrs [1, 13]: 100% | Survival (%) 72 Hrs [1, 13]: 100% | Survival (%) 24 Hrs [1, 14]: 100% | Survival (%) 48 Hrs [1, 14]: 100% | Survival (%) 72 Hrs [1, 14]: 100% | Survival (%) 24 Hrs [1, 15]: 100% | Survival (%) 48 Hrs [1, 15]: 100% | Survival (%) 72 Hrs [1, 15]: 100%
